Laboratory results published in patent US12637477B2, “Synthesis process of amide derivatives of hydroxypenicillanic acid” (priority 2020, dated 2026).

Test system: CHO-S cells
Test: Viable cell count of CHO-S cells after 24 hours incubation (anticancer activity)
Assay type: cell-based, hamster
Experimental: The two compounds, by means of a standard assay, were tested on mammalian (hamster) cancer cells to evaluate possible anticancer activity.
Compound (IIB) was used at concentrations of 25 μM and 50 μM, while Peny compound was tested at concentrations up to 400 μM.
Mammalian cancer cells were then incubated for 24 hours.
Precisely, CHO-S cells were cultured in 2 mL of DMEM (Dulbecco's Modified Eagle Medium) (10% FBS, 6% Glutamax) in a 24-well plate at a density of 200×10^3 cells/per well and subsequently incubated at 37° C. in a controlled atmosphere (5% CO2) under shaking. The following day, cells were counted by means of the Countess II instrument (Thermofisher Scientific) (an automated cell counter). They were then treated with Purymycin (positive control), Peny, (IIB) compounds, and in the absence of any product (negative control), at the concentrations shown in FIG. 37.
Cell counts were performed after 24 hours to determine the number of viable cells.

Compound | cytotoxicity at 50 µM (50 μM, read-out: reduction of viable cells) [%] | anticancer effect (tested at concentrations up to 400 μM)
CC(=O)OC[C@H]1O[C@@H](OCc2cn(CCCNC(=O)[C@@H]3N4C(=O)N[C@H](C(=O)O)[C@H]4SC3(C)C)nn2)[C@H](OC(C)=O)[C@@H](OC(C)=O)[C@@H]1OC(C)=O [Compound (IIB), (3S, 7R, 7aR)-2,2-dimethyl-5-oxo-3-((3-(4-((((2R, 3R, 4S, 5R, 6R)-3,4,5-triacetoxy-6-(acetoxymethyl)tetrahydro-2H-pyran-2-yl)oxy)methyl)-1H-1,2,3-triazol-1-yl)propyl)carbamoyl)hexahydroimidazo[5,1-b]thiazole-7-carboxylic acid] | ~50 | 
CC(=O)OC[C@@H]1OC(n2cc(COC(=O)[C@@H]3N4C(=O)[C@@H](NC(=O)OC(C)(C)C)[C@H]4SC3(C)C)nn2)[C@@H](OC(C)=O)[C@H](OC(C)=O)[C@H]1OC(C)=O (some centres unmarked) [Penγ] |  | not associated
